Test results taken from US8673890B2, “2,3-dihydro-1H-isoindol-1-imine derivatives useful as thrombin PAR-1 receptor antagonist” (Janssen Pharmaceutica NV, priority 2009, dated 2014).
Values joined by “and” are separate entries in the source; they are usually repeats but may differ in a detail not shown here. Equal values may be shown once.

Legend:
[1] = test system: platelets in platelet-rich plasma; assay: Thrombin-induced platelet aggregation in platelet-rich plasma; format: cell-based, human; details: for IC50: multiple values = individual measurements; for inhibition at 10 µM: 10 μM compound
Method: (§1) The procedure for this assay is similar to that described in Biological Example 2, above. Briefly, platelet aggregation studies were performed according to the method of Bednar et al. (Bednar, B., Condra, C., Gould, R. J., and Connolly, T. M., Thromb. Res., 77:453-463 (1995)). Platelet-rich plasma (PRP) concentrates prepared from healthy volunteers who were aspirin free for at least 7 days by venipuncture using EDTA as anticoagulant was purchased from Biological Specialties, Inc. (Colmar, Pa.). PPP (platelet-poor-plasma) was obtained by centrifugation of PRP at Max (3,000 rpms) for 15 min at room temperature. PRP was diluted to yield platelet count of 300×10^3 platelets/μL with PPP. For thrombin induced platelet aggregation: 118 μL of 500 mM GPRP-NH2 was added to 12 mL of 300×10^3 platelets before using (to clean the fibrinogen in the plasma.) GPRP was added just before the experiment. 15 μL of test compound solutions were added to 120 μL of platelets 5 min prior the agonist additions. Platelet aggregation was initiated by the addition of agonist shown to achieve 60-70% aggregation. Antagonist potency was estimated as a % inhibition of the control Har peptide or thrombin response to obtain an IC50.
(§2) Where multiple values are listed for a particular compound, said numbers represent individual measurements (tests) for said compound.

[2] = test system: platelets in platelet-rich plasma; assay: Har peptide-induced platelet aggregation in platelet-rich plasma; format: cell-based, human; details: for IC50: multiple values = individual measurements; for inhibition at 10 µM: 10 μM compound
Method: as §1, §2

[3] = biological target: T1, thrombin receptor (PAR-1) (Homo sapiens, UniProt P25116); assay: FLIPR-based calcium-flux assay with human smooth muscle cells (Har peptide agonist); format: cell-based; details: HSMC; 30 nM Har (PAR1) peptide agonist; 80-min drug incubation; multiple values = individual measurements
T1 construct: Human aortic smooth muscle cells (HSMC) were purchased from Cascade Biologics; host or cells: human aortic smooth muscle cells (HSMC)
T1 sequence (P25116 22-425): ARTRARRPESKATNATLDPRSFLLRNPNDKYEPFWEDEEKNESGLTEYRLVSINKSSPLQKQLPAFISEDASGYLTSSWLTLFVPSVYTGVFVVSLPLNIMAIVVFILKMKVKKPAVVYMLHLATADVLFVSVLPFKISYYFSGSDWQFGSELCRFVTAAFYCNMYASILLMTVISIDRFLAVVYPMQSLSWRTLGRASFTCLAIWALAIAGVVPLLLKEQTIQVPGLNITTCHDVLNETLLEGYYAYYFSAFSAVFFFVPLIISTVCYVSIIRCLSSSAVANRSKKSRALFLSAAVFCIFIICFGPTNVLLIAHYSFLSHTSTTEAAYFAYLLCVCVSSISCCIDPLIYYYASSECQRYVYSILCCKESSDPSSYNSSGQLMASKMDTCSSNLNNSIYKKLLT
Method: Human aortic smooth muscle cells (HSMC) were purchased from Cascade Biologics (Portland, Oreg.) and cultured in M-231 containing smooth muscle cell growth supplement and 1× Antibiotic-Antimycotic.
To determine agonist concentration for compound testing: On the day prior to the assay, 100 μL of cells (2×10^5/mL) were seeded in clear, flat-bottom black-wall, tissue culture treated polystyrene 96-well plates and incubated at 37° C., 5% CO2. On the day of the assay, 50 μL of complete dye loading solution (FLIPR Calcium 3 Kit, Molecular Devices) was added to each well containing 100 μL of culture media. The cells were incubated for 30-45 min at 37° C., in 5% CO2 before initiating the assay on the FLIPR. The agonist effect of PAR1 peptide (S-(p-F-Phe)-Har-L-Har-KY-NH2; Har=homoarginine; referred to herein as “Har” peptide) was tested and the EC50 was determined. The EC60-70 dose was used (30 nM) for compound testing.
Compound testing: On the day prior to the assay, 90 μL of cells (2.2×10^5/mL) were seeded in clear, flat-bottom black-wall, tissue culture treated polystyrene 96-well plates and incubated at 37° C., 5% CO2. On the day of the assay, the test compounds were prepared at 10× in 3% DMSO Hanks buffer and 10 μL was added to each well (final DMSO concentration of 0.3%). The cells were incubated 20 min at 37° C., 5% CO2. Culture medium containing testing compounds was dumped and the cells were washed four times with DPBS containing 0.1% of BSA and re-fed with 80 μL of growth medium. 70 μL of BD (fluorescent) dye was loaded to the cells and incubated 45 min at 37° C. incubator. The plates were equilibrated to room temperature for 15 min. 4× PAR1 peptide (30 nM final concentration) agonist plate and the cell plate were placed in FLIPR's assay chamber. 50 μL agonist was added to the cells and data was recorded for 5 min. Raw fluorescence data was exported for each well and tabulated versus time within an ASCII file. Data was then imported into Excel® and the peak response over basal level was determined. The percent inhibition for each test compound was calculated by the changes of fluorescent density as a % inhibition of the control Har peptide response to obtain an IC50.
(§3) Representative compounds of the present invention were tested according to the procedure described in Biological Example 1 above, with results in Table 8 below. In Table 8 below, where multiple values are listed for a particular compound, said numbers represent individual measurements (tests) for said compound.

washed platelets [4] = assay: Har peptide-induced platelet aggregation in washed platelets; format: cell-based; details: Homo sapiens
Method: (§4) Platelet aggregation studies were performed according to the method of Bednar et al. (Bednar, B., Condra, C., Gould, R. J., and Connolly, T. M., Thromb. Res., 77:453-463 (1995)). Platelet-rich plasma (PRP) concentrates prepared from healthy volunteers who were aspirin free for at least 7 days by venipuncture using ACD-A as anticoagulant was purchased from Biological Specialties, Inc. (Colmar, Pa.). PRP was centrifuged at 730 g for 15 min. The platelet pellet was washed twice in CGS buffer (13 mM sodium citrate, 30 mM glucose, 120 mM NaCl, pH 6.5) containing 1 U/ml apyrase (grade V, Sigma-Aldrich, St. Louis, Mo.), 1 mM EGTA, and re-suspended in Tyrode's buffer (140 mM NaCl, 2.7 mM KCl, 12 mM NaHCO3, 0.76 mM Na2HPO4, 5.5 mM dextrose, 5.0 mM HEPES, 0.2% BSA, pH 7.4). The platelets were diluted to 3×10^8 platelets/ml and kept >45 min at 37° C. before use. 105 μl of washed platelets, 2 mM CaCl2 and […] of fibrinogen (for PAR-1 peptide-induced platelet aggregation only) were added to a 96-well microliter plate. Platelet aggregation was initiated by the addition of serial concentrations of Har peptide or thrombin (Alpha; American Diagnostica, Cat. # 470HT, 2,500 NIH Units/mg). Buffer was added to one set of control wells. The assay plate was stirred constantly and intermittently placed in a microplate reader (Softmax, Molecular Devices, Menlo Park, Calif.) to read optical density (650 nm) at 0 and 5 minutes after the addition of the compound solutions. Aggregation was calculated as the decrease in optical density between the time 0- and 5-min measurements and expressed as % of aggregation.
(§5) For the inhibition assay, platelet aggregation measurements were conducted as described, with the additional step of test compound addition. Compounds were prepared in 100% DMSO and stored. On the day of the experiment, the compounds were diluted in the Tyrode's buffer containing 3% of DMSO as a 10× working solution. 15 μl of test compound solutions were added to 105 μl of platelets 5 min prior to CaCl2 and fibrinogen additions. Platelet aggregation was initiated by the addition of agonist shown to achieve 60-70% aggregation. Antagonist potency was estimated as a % inhibition of the control Har peptide or thrombin response to obtain an IC50.
as §3, with “2” for “1”, “9” for “8”, “9” for “8 below,”

washed platelets [5] = assay: Thrombin-induced platelet aggregation in washed platelets; format: cell-based, human; details: for IC50: Homo sapiens, Platelet
Method: as §4, §5
as §3, with “2” for “1”, “9” for “8”, “9” for “8 below,”

Structure (SMILES) | IC50 [1] | IC50 ([2]; Homo sapiens, Platelet) | IC50 [3] | IC50 (washed platelets [4]) | IC50 (washed platelets [5]) | IC50 ([1]; Homo sapiens, Platelet) | Washed platelet aggregation IC50 (μM) Thrombin (washed platelets [5]) | IC50 [2] | inhibition at 10 µM ([1]; Homo sapiens) | inhibition at 10 µM ([2]; Homo sapiens)
CC(C)(C)c1cc(C(=O)CN2Cc3cc4c(cc3C2=N)OCc2ncccc2CO4)cc(C(C)(C)C)c1O [Compound 49] | 690 nM and 2430 nM | 390 nM | 0.019 µM and 0.059 µM and 0.023 µM and 0.038 µM | 0.068 µM | 0.107 µM | – | – | – | – | –
COc1c(N2CCOCC2)cc(C(=O)CN2Cc3cc4c(cc3C2=N)OCc2ncccc2CO4)cc1C(C)(C)C [Compound 52] | – | – | 0.025 µM | 0.172 µM | 0.282 µM | – | – | – | – | –
COc1c(N2CCOCC2)cc(C(=O)CN2Cc3cc4c(cc3C2=N)OCc2nccnc2CO4)cc1C(C)(C)C [Compound 58] | – | 749 nM | 0.103 µM | 0.214 µM | 0.304 µM | 803 nM | – | – | – | –
COc1c(N2CCOCC2)cc(C(=O)CN2Cc3cc4c(cc3C2=N)OCc2cc3c(cc2CO4)OCO3)cc1C(C)(C)C [Compound 59] | – | 6120 nM | 0.371 µM | 1.25 µM | 2.11 µM | – | – | – | – | –
COC(=O)c1ccc2c(c1)COc1cc3c(cc1OC2)CN(CC(=O)c1cc(N2CCOCC2)c(OC)c(C(C)(C)C)c1)C3=N [Compound 73] | 2430 nM and > 10000 nM | 6710 nM | 0.047 µM and 0.057 µM | 0.446 µM | 0.813 µM | – | – | – | – | –
Cc1sc(C)c2c1COc1cc3c(cc1OC2)C(=N)N(CC(=O)c1cc(C(C)(C)C)c(O)c(C(C)(C)C)c1)C3 [Compound 74] | > 10000 nM | > 10000 nM | 0.15 µM and 0.16 µM | 0.779 µM | – | > 10000 nM | variable | – | – | –
COc1c(C(C)(C)C)cc(C(=O)CN2Cc3cc4c(cc3C2=N)OCc2ncccc2CO4)cc1C(C)(C)C [Compound 75] | 2190 nM and > 10000 nM | 3040 nM | 0.39 µM and 0.46 µM | 0.183 µM | > 10 µM | – | – | – | – | –
COc1c(N2CCOCC2)cc(C(=O)CN2Cc3cc4c(cc3C2=N)OCc2c(F)ccc(F)c2CO4)cc1C(C)(C)C [Compound 88] | 2660 nM | 1630 nM | 0.091 µM and 0.024 µM | – | – | 3550 nM | – | 1210 nM | – | –
COc1c(N2CCOCC2)cc(C(=O)CN2Cc3cc4c(cc3C2=N)OCc2cc(F)c(F)cc2CO4)cc1C(C)(C)C [Compound 89] | 4610 nM and 6020 nM | 1280 nM | 0.29 µM and 0.13 µM | – | – | 4880 nM | – | 2310 nM | – | –

Now from value to compound, other results behind:

IC50 [1] | IC50 ([2]; Homo sapiens, Platelet) | IC50 [3] | IC50 (washed platelets [4]) | IC50 (washed platelets [5]) | IC50 ([1]; Homo sapiens, Platelet) | Washed platelet aggregation IC50 (μM) Thrombin (washed platelets [5]) | IC50 [2] | Structure (SMILES) | inhibition at 10 µM ([1]; Homo sapiens) | inhibition at 10 µM ([2]; Homo sapiens)
– | 2560 nM | 0.68 µM and 0.2 µM and 0.57 µM | – | – | > 10000 nM | – | 4450 nM | COc1c(N2CCOCC2)cc(C(=O)CN2Cc3cc4c(cc3C2=N)OCC(F)(F)C(F)(F)CO4)cc1C(C)(C)C [Compound 90, 1-(3-tert-butyl-4-methoxy-5-morpholinophenyl)-2-(3,3,4,4-tetrafluoro-8-imino-4,5-dihydro-2H-[1,4]-dioxocino[2,3-f]isoindol-9(3H,8H,10H)-yl)ethanone] | 30% | –
> 10000 nM | 12900 nM | 0.39 µM and 0.07 µM and 0.19 µM | – | – | > 10000 nM | – | – | CC(C)(C)c1cc(C(=O)CN2Cc3cc4c(cc3C2=N)OCC(F)(F)C(F)(F)CO4)cc(C(C)(C)C)c1O [Compound 91] | – | 26%
> 10000 nM | – | 0.53 µM and 0.36 µM | – | – | > 10000 nM | – | – | COc1c(N2CCOCC2)cc(C(=O)CN2Cc3cc4c(cc3C2=N)OCC(F)(F)CO4)cc1C(C)(C)C [Compound 92] | – | 24%
> 10000 nM | 2080 nM | 0.27 µM and 0.13 µM | – | – | > 10000 nM | – | 3800 nM | CC(C)(C)c1cc(C(=O)CN2Cc3cc4c(cc3C2=N)OCC(F)(F)CO4)cc(C(C)(C)C)c1O [Compound 93] | – | –
3250 nM | 1570 nM | 0.031 µM and 0.015 µM | – | – | 3230 nM | – | 2300 nM | CC(C)(C)c1cc(C(=O)CN2Cc3cc4c(c(F)c3C2=N)OCc2ccccc2CO4)cc(C(C)(C)C)c1O [Compound 96] | – | –
– | 1300 nM | 0.05 µM and 0.1 µM | – | – | 2190 nM | – | – | COc1c(N2CCOCC2)cc(C(=O)CN2Cc3cc4c(cc3C2=N)OC/C=C\CO4)cc1C(C)(C)C [Compound 97] | – | –
– | > 10000 nM | 0.27 µM and > 1 µM | – | – | > 10000 nM | – | – | COc1c(N2CCOCC2)cc(C(=O)CN2Cc3cc4c(cc3C2=N)OCc2cc(C)c(C)cc2CO4)cc1C(C)(C)C [Compound 98] | – | –
– | > 10000 nM | 0.092 µM and 0.22 µM | – | – | – | – | – | Cc1cc2c(cc1C)COc1cc3c(cc1OC2)CN(CC(=O)c1cc(C(C)(C)C)c(O)c(C(C)(C)C)c1)C3=N [Compound 99] | 23% | –
– | 1610 nM | 0.022 µM and 0.027 µM | – | – | 1920 nM | – | – | CC(C)(C)c1cc(C(=O)CN2Cc3cc4c(cc3C2=N)OC/C=C\CO4)cc(C(C)(C)C)c1O [Compound 100, (Z)-1-(3,5-di-tert-butyl-4-hydroxyphenyl)-2-(8-imino-2H-[1,4]-dioxocino[2,3-f]isoindol-9(5H,8H,10H)-yl)ethanone] | – | –
